From patent US6069156A, “Indole derivatives as cGMP-PDE inhibitors” (Fujisawa Pharmaceutical Co., Ltd., priority 1995, dated 2000) come the findings set out here.

Where a name gives a salt, the structure may show the parent alone. Read-outs that look alike come from different tables or passages of the source.

Assay [1] addresses T1, cGMP-PDE (Homo sapiens, UniProt O76074).
T1 construct: cGMP-PDE was separated from other isozymes in human platelets; from tissue; host or cells: human platelets
The experiment in a line: cGMP-phosphodiesterase (PDE) Assay (human platelets). Type of assay: biochemical. As to the method: cGMP-phosphodiesterase (PDE) Assay
cGMP-PDE was separated from other isozymes in human platelets by a modification of the method of Thompson et. al. (Cyclic Nucleotide Phosphodiesterase (PDE), in Methods of Enzymatic analysis, Vol 4, p127-234, 1984). In enzyme inhibition assays, the test compounds were dissolved in 10% DMSO and then diluted with assay buffer (50 mM Tris-HCl, pH 8.0, 0.1 mM dithiothreitol, 2 mM EGTA and 10 u/ml snake venom), at final concentrations ranging from 10^-10 to 10^-6 M. Assays were performed at 0.1 μM substrate ([^3 H]-cGMP) concentration, at 30° C. for 10 minutes using enzyme dilutions which gave 10-20% hydrolysis of substrate. Each assay was initiated by addition of substrate and terminated by addition of anion exchange resin (Dowex 1-X8, 25 μg/mg) followed by centrifugation for 10 minutes (3000 rpm, at 4° C.). Radioactivity of supernatant (^3 H-GMP) was assayed by liquid scintillation counting.

The subject of assay [2] is Vascular smooth muscle cells (vSMCs). The experiment in a line: vSMC Proliferation ([3H]-thymidine, PDGF-stimulated). Type of assay: cell-based, male Wistar rats. As to conditions: Rattus norvegicus, PDGF 10 ng/ml stimulation. As to the method:
Vascular smooth muscle cells (vSMCs) were prepared from explants of the thoracic aorta of 10 week old male Wistar rats by a modification of the method of Ross (J. Cell Biol., 50: 172, 1971). They were cultured in DMEM containing 10% fetal calf serum, 1% penicillin G and 1% streptomycin at 37° C. in a 95% air, 5% CO2 humidified atmosphere. vSMCs were seeded in 24 well plates and cultured in the presence of 10% fetal calf serum for 3 days. Cell growth then was arrested by transfer to serum free DMEA. After 24 hours, each test compound or vehicle was added to medium for 1 hour, and then cells were stimulated by PDGF (10 ng/ml). After 24 hours of additional incubation, [^3 H]-thymidine (1 μCi/ml) was added during the final 4 hours of incubation time, and trichloracetic acid insoluble radioactivity was assayed by liquid scintillation counting.

The mark [3] stands for this setting: 0.1 μM [3H]-cGMP, 30° C., 10 minutes, read-out: IC50.

The term IC50 denotes the midpoint of a concentration-inhibition curve. In the case of `CC(=O)c1c(CC(C)C)c2ccc(C(N)=O)cc2n1Cc1ccccc1Cl` [Example 18, 2-Acetyl-1-(2-chlorobenzyl)-3-isobutylindole-6-carboxamide], the IC50 in assay [1] (setting [3]) is less than 100 nM.

For the compound `Cc1c(C(=O)C(C)C)c2ccc(C(N)=O)cc2n1Cc1c(Cl)sc2ccccc12` [75-(21), 1-(2-Chlorobenzo[b]thiophen-3-ylmethyl)-3-isobutyryl-2-methylindole-6-carboxamide], the IC50 in assay [1] is less than 100 nM.

`CCCc1c(C(=O)C(C)C)c2ccc(C(N)=O)cc2n1Cc1ccc(Cl)cc1` [Example 26, 1-(4-chlorobenzyl)-3-isobutyryl-2-propylindole-6-carboxamide] registered an IC50 in assay [1] of less than 100 nM.

In the case of `CCCc1c(C(=O)C(C)C)c2cc(C(N)=O)ccc2n1Cc1ccccc1Cl` [75-(4), 1-(2-Chlorobenzyl)-3-isobutyryl-2-propylindole-5-carboxamide], in assay [1], the IC50 was less than 100 nM.

With `CCCc1c(C(=O)C(C)C)c2ccc(C(N)=O)cc2n1Cc1ccccn1` [Example 39, 3-isobutyryl-2-propyl-1-(2-pyridylmethyl)indole-6-carboxamide hydrochloride], in assay [1], the IC50 was less than 100 nM.

For `CCCc1c(C(=O)C(C)C)c2ccc(C(N)=O)cc2n1Cc1ccc(Cl)s1` [27-(5), 1-[(5-Chlorothien-2-yl)methyl]-3-isobutyryl-2-propylindole-6-carboxamide], the IC50 in assay [2] and in assay [1] was less than 100 nM each time.

As for `COCc1c(C(=O)C(C)C)c2ccc(C(N)=O)cc2n1Cc1ccccc1Cl` [37-(14), 1-(2-Chlorobenzyl)-3-isobutyryl-2-methoxymethylindole-6-carboxamide], the IC50 in assay [2] and in assay [1] was less than 100 nM in each case.

Compound `CCCc1c(C(=O)CN2CCOCC2)c2ccc(C(N)=O)cc2n1Cc1ccccc1Cl` [75-(10), 1-(2-Chlorobenzyl)-3-morpholinoacetyl-2-propylindole-6-carboxamide] returned an IC50 in assay [1] of less than 100 nM.

For the compound `CCCc1c(C(=O)C(C)C)c2ccc(C(=O)NO)cc2n1Cc1ccccc1Cl` [Example 23, 1-(2-chlorobenzyl)-3-isobutyryl-2-propylindole-6-carbohydroxamic acid], the half-maximal inhibitory concentration (IC50) in assay [2] and in assay [1] was less than 100 nM in each case.

Consider `N#Cc1ccc2c3c(n(Cc4ccccc4Cl)c2c1)C(=O)CCC3` [67-(2), 9-(2-Chlorobenzyl)-8-oxo-5,6,7,8-tetrahydrocarbazole-2-carbonitrile], for which the IC50 in assay [2] and in assay [1] (setting [3]) was less than 100 nM each time.

As to `CCC(=O)c1c(CC)c2ccc(C(N)=O)cc2n1Cc1ccccc1Cl` [Example 21, 1-(2-Chlorobenzyl)-3-ethyl-2-propionylindole-6-carboxamide], in assay [1] (setting [3]), the IC50 was less than 100 nM.

Turning to `NC(=O)c1ccc2c3c(n(Cc4ccccc4Cl)c2c1)C(=O)CC3` [75-(39), 4-(2-Chlorobenzyl)-3-oxo-1,2,3,4-tetrahydrocyclopent[b]indole-6-carboxamide], in assay [1] (setting [3]), the IC50 is less than 100 nM.

Consider `NC(=O)c1ccc2c(C(=O)O)cn(Cc3ccccc3Cl)c2c1` [Example 63, 6-carbamoyl-1-(2-chlorobenzyl)indole-3-carboxylic acid], for which the IC50 in assay [1] was less than 100 nM.

On to `CCCc1c(C=O)c2ccc(C(=O)NS(=O)(=O)c3ccccc3)cc2n1Cc1ccccc1Cl` [22-(6), 1-(2-Chlorobenzyl)-3-formyl-N-phenylsulfonyl-2-propylindole-6-carboxamide], for which the IC50 in assay [2] and in assay [1] was less than 100 nM throughout.

For the compound `CC(=O)C=Cc1cn(Cc2ccccc2Cl)c2cc(C(N)=O)ccc12` [75-(38), 1-(2-Chlorobenzyl)-3-(3-oxo-1-butenyl)indole-6-carboxamide], the IC50 in assay [1] (setting [3]) is less than 100 nM.

For the compound `CCCc1c(C(=O)C(C)C)c2ccc(C(N)=O)cc2n1Cc1ccccc1C#N` [37-(6), 1-(2-Cyanobenzyl)-3-isobutyryl-2-propylindole-6-carboxamide], the concentration for half-maximal inhibition (IC50) in assay [1] is less than 100 nM.

For `CCc1c(C(O)C(C)C)c2ccc(C(N)=O)cc2n1Cc1ccccc1Cl` (stereo not shown) [Example 69, 1-(2-Chlorobenzyl)-2-ethyl-3-(1-hydroxy-2-methylpropyl)indole-6-carboxamide], the half-inhibitory concentration (IC50) in assay [1] (setting [3]) was less than 100 nM.

Take `CCc1c(CC)n(Cc2ccccc2Cl)c2cc(C(N)=O)ccc12` [37-(17), 1-(2-Chlorobenzyl)-2,3-diethylindole-6-carboxamide]: the IC50 in assay [1] (setting [3]) was less than 100 nM.

In assay [1], `CCCc1c(C(=O)C(C)C)c2ccc(C(=O)OC)cc2n1Cc1ccccc1Cl` [Example 4, Methyl 1-(2-chlorobenzyl)-3-isobutyryl-2-propylindole-6-carboxylate] returned an IC50 of less than 100 nM.

On to `CCCc1c(C(=O)C(C)C)c2ccc(NC=O)cc2n1Cc1ccccc1Cl` [Example 58, 1-(2-chlorobenzyl)-6-formamido-3-isobutyryl-2-propylindole], for which, in assay [1], the IC50 is less than 100 nM.

`CCC(=O)c1c(CC)n(Cc2ccccc2Cl)c2cc(C(N)=O)ccc12` [Example 15, 1-(2-Chlorobenzyl) -2-ethyl-3-propionylindole-6-carboxamide]: the IC50 in assay [2] and in assay [1] was less than 100 nM each time.

With `CCCc1c(C(=O)C(C)C)c2ccc(C(N)=O)cc2n1Cc1cccc(Cl)c1` [27-(2), 1-(3-Chlorobenzyl)-3-isobutyryl-2-propylindole-6-carboxamide], the IC50 in assay [1] was less than 100 nM.

In the case of `CCc1c(Cl)n(Cc2ccccc2Cl)c2cc(C(N)=O)ccc12` [75-(35), 2-Chloro-1-(2-chlorobenzyl)-3-ethylindole-6-carboxamide], the IC50 in assay [1] (setting [3]) is less than 100 nM.

As for `CCCc1c(C(=O)C(C)C)c2ccc(C(N)=O)cc2n1Cc1ccccc1I` [37-(3), 1-(2-Iodobenzyl)-3-isobutyryl-2-propylindole-6-carboxamide], the IC50 in assay [1] is less than 100 nM.

`CCCc1c(C(N)=O)c2ccc(C(N)=O)cc2n1Cc1ccccc1Cl` [75-(15), 1-(2-Chlorobenzyl)-2-propylindole-3,6-dicarboxamide]: the IC50 in assay [1] was less than 100 nM.

On to `CCCc1c(C(=O)CO)c2ccc(C(N)=O)cc2n1Cc1ccccc1Cl` [Example 60, 1-(2-chlorobenzyl)-3-hydroxyacetyl-2-propylindole-6-carboxamide], for which the IC50 in assay [2] and in assay [1] was less than 100 nM throughout.

With `CCCc1c(C#N)c2ccc(C(N)=O)cc2n1Cc1ccccc1Cl` [37-(11), 1-(2-Chlorobenzyl)-3-cyano-2-propylindole-6-carboxamide], the IC50 in assay [1] (setting [3]) is less than 100 nM.

On to `CCCc1c(C(=O)CC)c2ccc(C(N)=O)cc2n1Cc1ccccc1Cl` [Example 9, 1-(2-Chlorobenzyl)-3-propionyl-2-propylindole-6-carboxamide], for which the IC50 in assay [2] and in assay [1] was less than 100 nM in each case.

On to `CCCc1c(C(=O)C(C)C)c2ccc(C(=O)NOC)cc2n1Cc1ccccc1Cl` [24-(1), 1-(2-Chlorobenzyl)-3-isobutyryl-O-methyl-2-propylindole-6-carbohydroxamic acid], for which the IC50 in assay [2] and in assay [1] was less than 100 nM each time.

In the case of `CCCc1c(C(=O)C(C)C)c2ccc(C(N)=O)cc2n1Cc1ccccc1C(=O)OC` [25-(2), 3-Isobutyryl-(2-methoxycarbonylbenzyl)-2-propylindole-6-carboxamide], the IC50 in assay [1] was less than 100 nM.

The compound `CCCc1c(C(=O)C(C)C)c2ccc(C(N)=O)cc2n1Cc1ccc2ccccc2c1` [75-(27), 3-Isobutyryl-2-propyl-1-(2-naphthylmethyl)indole-6-carboxamide] returned an IC50 in assay [1] of less than 100 nM.

Compound `CCCc1c(C(=O)C=C(C)C)c2ccc(C(N)=O)cc2n1Cc1ccccc1Cl` [73-(40), 1-(2-Chlorobenzyl)-3-(3-methyl-2-butenoyl)-2-propylindole-6-carboxamide] registered an IC50 in assay [1] of less than 100 nM.

For `CC=Cc1c(C(=O)C(C)C)c2ccc(C(N)=O)cc2n1Cc1ccccc1Cl` [75-(29), 1-(2-Chlorobenzyl)-3-isobutyryl-2-(1-propenyl)indole-6-carboxamide], the IC50 in assay [2] and in assay [1] was less than 100 nM each time.

With `CCC(O)c1c(C(=O)C(C)C)c2ccc(C(N)=O)cc2n1Cc1ccccc1Cl` (stereo not shown) [75-(30), 1-(2-Chlorobenzyl)-2-(1-hydroxypropyl)-3-isobutyrylindole-6-carboxamide], the 50% inhibitory concentration (IC50) in assay [2] and in assay [1] was less than 100 nM in each case.

`CCCc1c(C(=O)C(C)C)c2ccc(C(N)=O)cc2n1Cc1ccc2sccc2c1` [75-(23), 1-(Benzo[b]thiophen-5-ylmethyl)-3-isobutyryl-2-propylindole-6-carboxamide]: the IC50 in assay [1] was less than 100 nM.

Take `CCCc1c(C(=O)Cc2ccccc2)c2ccc(C(N)=O)cc2n1Cc1ccccc1Cl` [38-(2), 1-(2-Chlorobenzyl)-3-phenylacetyl-2-propylindole-6-carboxamide]: the IC50 in assay [2] and in assay [1] was less than 100 nM in each case.

As to `CCCc1c(C(C)=NO)c2ccc(C(N)=O)cc2n1Cc1ccccc1Cl` [Example 70, 1-(2-chlorobenzyl)-3-(1-hydroxyiminoethyl)-2-propylindole-6-carboxamide], the IC50 in assay [1] (setting [3]) was less than 100 nM.
